Experimental data taken from US20230151025A1, “SUBSTITUTED THIAZOLOPYRIDINES, SALTS THEREOF AND THEIR USE AS HERBICIDALLY ACTIVE SUBSTANCES” (Bayer Aktiengesellschaft, priority 2020, published 2023).

The compounds below were run on Lolium rigidum (LOLRI) (assay: Herbicidal pre-emergence action (A), 1280 g/ha). Settings: visual grading after ca. 3 weeks vs untreated controls, 100% = plants have died off, 0% = as control plants.
Assay type: in vivo
Procedure, shortened: (§1)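 Seeds were sown in sandy loam pots (one mono- and one dicot weed per pot) and covered with soil; WP or EC formulations were applied to the soil surface as aqueous suspension/emulsion with 0.5% additive at 600 l water/ha. Damage was scored visually after ca. 3 weeks versus untreated controls (0% = control, 100% = dead).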

Compound	LOLRI, herbicidal effect in percent (%)
C=Cc1cc2scnc2nc1-c1ccccc1F [Example I-072]	100%
Cc1sccc1-c1nc2ncsc2cc1Br [Example I-135]	100%

These compounds were tested on Alopecurus myosuroides (ALOMY) (assay: Herbicidal pre-emergence action (A), 1280 g/ha). Settings: visual grading after ca. 3 weeks vs untreated controls, 100% = plants have died off, 0% = as control plants.
Assay type: in vivo
Procedure, shortened: as §1

Compound	ALOMY, herbicidal effect in percent (%)
C=Cc1cc2scnc2nc1-c1ccccc1F [Example I-072]	100%
Cc1sccc1-c1nc2ncsc2cc1Br [Example I-135]	90%

These compounds were tested on Amaranthus retroflexus (AMARE) (assay: Herbicidal pre-emergence action (A), 1280 g/ha). Settings: visual grading after ca. 3 weeks vs untreated controls.
Assay type: in vivo
Procedure, shortened: as §1

Compound	herbicidal effect AMARE
C=Cc1cc2scnc2nc1-c1ccccc1F [Example I-072]	100%
Cc1sccc1-c1nc2ncsc2cc1Br [Example I-135]	90%

What follows are compounds tested on Digitaria sanguinalis (DIGSA) (assay: Herbicidal pre-emergence action (A), 1280 g/ha). Settings: visual grading after ca. 3 weeks vs untreated controls, 100% = plants have died off, 0% = as control plants.
Assay type: in vivo
Procedure, shortened: as §1

Compound	DIGSA, herbicidal effect in percent (%)
C=Cc1cc2scnc2nc1-c1ccccc1F [Example I-072]	100%

These compounds were tested on Matricaria inodora (MATIN) (assay: Herbicidal pre-emergence action (A), 1280 g/ha). Settings: visual grading after ca. 3 weeks vs untreated controls.
Assay type: in vivo
Procedure, shortened: as §1

Compound	herbicidal effect MATIN
C=Cc1cc2scnc2nc1-c1ccccc1F [Example I-072]	100%
Cc1sccc1-c1nc2ncsc2cc1Br [Example I-135]	100%

What follows are compounds tested on Kochia scoparia (KCHSC; Bassia scoparia) (assay: Herbicidal pre-emergence action (A), 1280 g/ha). Settings: visual grading after ca. 3 weeks vs untreated controls.
Assay type: in vivo
Procedure, shortened: as §1

Compound	herbicidal effect KCHSC
C=Cc1cc2scnc2nc1-c1ccccc1F [Example I-072]	100%
Cc1sccc1-c1nc2ncsc2cc1Br [Example I-135]	90%

These compounds were tested on Stellaria media (STEME) (assay: Herbicidal pre-emergence action (A), 1280 g/ha). Settings: visual grading after ca. 3 weeks vs untreated controls.
Assay type: in vivo
Procedure, shortened: as §1

Compound	herbicidal effect STEME
C=Cc1cc2scnc2nc1-c1ccccc1F [Example I-072]	90%
Cc1sccc1-c1nc2ncsc2cc1Br [Example I-135]	90%

These compounds were tested on Poa annua (POAAN) (assay: Herbicidal pre-emergence action (A), 1280 g/ha). Settings: visual grading after ca. 3 weeks vs untreated controls, 100% = plants have died off, 0% = as control plants.
Assay type: in vivo
Procedure, shortened: as §1

Compound	POAAN, herbicidal effect in percent (%)
C=Cc1cc2scnc2nc1-c1ccccc1F [Example I-072]	100%
Cc1sccc1-c1nc2ncsc2cc1Br [Example I-135]	100%

What follows are compounds tested on Veronica persica (VERPE) (assay: Herbicidal pre-emergence action (A), 1280 g/ha). Settings: visual grading after ca. 3 weeks vs untreated controls.
Assay type: in vivo
Procedure, shortened: as §1

Compound	herbicidal effect VERPE
C=Cc1cc2scnc2nc1-c1ccccc1F [Example I-072]	100%
Cc1sccc1-c1nc2ncsc2cc1Br [Example I-135]	90%

The compounds below were run on Echinochloa crus-galli (ECHCG) (assay: Herbicidal pre-emergence action (A), 1280 g/ha). Settings: visual grading after ca. 3 weeks vs untreated controls, 100% = plants have died off, 0% = as control plants.
Assay type: in vivo
Procedure, shortened: as §1

Compound	ECHCG, herbicidal effect in percent (%)
C=Cc1cc2scnc2nc1-c1ccccc1F [Example I-072]	100%
Cc1sccc1-c1nc2ncsc2cc1Br [Example I-135]	100%

Each compound was assayed on Setaria viridis (SETVI) (assay: Herbicidal pre-emergence action (A), 1280 g/ha). Settings: visual grading after ca. 3 weeks vs untreated controls.
Assay type: in vivo
Procedure, shortened: as §1

Compound	herbicidal effect SETVI
C=Cc1cc2scnc2nc1-c1ccccc1F [Example I-072]	100%
Cc1sccc1-c1nc2ncsc2cc1Br [Example I-135]	100%

What follows are compounds tested on Lolium rigidum (LOLRI) (assay: Herbicidal pre-emergence action (C), 320 g/ha). Settings: ca. 3 weeks.
Assay type: in vivo
Source text: (§2) ABUTH: Abutilon theophrasti AGSTE: Agrostis tenuis ALOMY: Alopecurus myosuroides AMARE Amaranthus retroflexus DIGSA: Digitaria sanguinalis ECHCG: Echinochloa crus-galli KCHSC: Kochia scoparia LOLRI: Lolium rigidum MATIN: Matricaria inodora POAAN: Poa annua POLCO: Polygonum convolvulus SETVI: Setaria viridis STEME: Stellaria media VERPE: Veronica persica VIOTR: Viola tricolor
(§3) Seeds of mono- and dicotyledonous weed plants and crop plants were sown, in plastic or organic planting pots, in sandy loam and covered with soil. The compounds according to the invention, formulated in the form of wettable powders (WP) or as emulsifiable concentrates (EC), were applied to the surface of the covering soil as aqueous suspension or emulsion, with the addition of 0.5% of an additive, at an application rate of 600 l of water/ha (converted).
(§4) Following treatment, the pots were placed in a greenhouse and kept under optimum growth conditions for the test plants. The visual grading of the damage to the test plants was carried out after ca. 3 weeks in comparison to untreated controls (herbicidal effect in percent (%): 100% effect=plants have died off, 0% effect=as control plants).
(§5) Tables C1 to C13 below show the effects of selected compounds of the general formula (I) according to table 1 on various harmful plants and an application rate corresponding to 320 g/ha obtained by the experimental procedure mentioned above.

Compound	herbicidal effect LOLRI
C=Cc1cc2scnc2nc1-c1ccccc1F [Example I-072]	100%
Cc1sccc1-c1nc2ncsc2cc1Br [Example I-135]	100%

Each compound was assayed on Alopecurus myosuroides (ALOMY) (assay: Herbicidal pre-emergence action (C), 320 g/ha). Settings: ca. 3 weeks.
Assay type: in vivo
Source text: as §2, §3, §4, §5

Compound	herbicidal effect ALOMY
C=Cc1cc2scnc2nc1-c1ccccc1F [Example I-072]	100%
Cc1sccc1-c1nc2ncsc2cc1Br [Example I-135]	100%

Each compound was assayed on Amaranthus retroflexus (AMARE) (assay: Herbicidal pre-emergence action (C), 320 g/ha). Settings: ca. 3 weeks.
Assay type: in vivo
Source text: as §2, §3, §4, §5

Compound	herbicidal effect AMARE
C=Cc1cc2scnc2nc1-c1ccccc1F [Example I-072]	80%
Cc1sccc1-c1nc2ncsc2cc1Br [Example I-135]	90%

These compounds were tested on Matricaria inodora (MATIN) (assay: Herbicidal pre-emergence action (C), 320 g/ha). Settings: ca. 3 weeks.
Assay type: in vivo
Source text: as §2, §3, §4, §5

Compound	herbicidal effect MATIN
Cc1sccc1-c1nc2ncsc2cc1Br [Example I-135]	80%

These compounds were tested on Veronica persica (VERPE) (assay: Herbicidal pre-emergence action (C), 320 g/ha). Settings: ca. 3 weeks.
Assay type: in vivo
Source text: as §2, §3, §4, §5

Compound	herbicidal effect VERPE
C=Cc1cc2scnc2nc1-c1ccccc1F [Example I-072]	80%
Cc1sccc1-c1nc2ncsc2cc1Br [Example I-135]	80%

Each compound was assayed on Echinochloa crus-galli (ECHCG) (assay: Herbicidal pre-emergence action (C), 320 g/ha). Settings: ca. 3 weeks.
Assay type: in vivo
Source text: as §2, §3, §4, §5

Compound	herbicidal effect ECHCG
C=Cc1cc2scnc2nc1-c1ccccc1F [Example I-072]	100%
Cc1sccc1-c1nc2ncsc2cc1Br [Example I-135]	100%

Each compound was assayed on Setaria viridis (SETVI) (assay: Herbicidal pre-emergence action (C), 320 g/ha). Settings: ca. 3 weeks.
Assay type: in vivo
Source text: as §2, §3, §4, §5

Compound	herbicidal effect SETVI
C=Cc1cc2scnc2nc1-c1ccccc1F [Example I-072]	100%
Cc1sccc1-c1nc2ncsc2cc1Br [Example I-135]	100%

These compounds were tested on Amaranthus retroflexus (AMARE) (assay: Herbicidal post-emergence action (D), 320 g/ha). Settings: ca. 3 weeks.
Assay type: in vivo
Source text: as §2
(§6) Seeds of mono- and dicotyledonous weed plants and crop plants were sown, in plastic or organic planting pots, in sandy loam, covered with soil and grown in a greenhouse under controlled growth conditions. 2 to 3 weeks after sowing, the test plants were sprayed in the single-leaf stage. The compounds according to the invention, formulated in form of wettable powders (WP) or as emulsifiable concentrates (EC), were sprayed onto the green plant parts as aqueous suspension or emulsion, with the addition of 0.5% of an additive, at an application rate of 600 l of water/ha (converted). The test plants were placed in the greenhouse for ca. 3 weeks under optimum growth conditions, and then the effect of the preparations was assessed visually in comparison with untreated controls (herbicidal effect in percent (%): 100% effect=plants have died off, 0% effect=as control plants).
(§7) Tables D1 to D13 below show the effects of selected compounds of the general formula (I) according to table 1 on various harmful plants and an application rate corresponding to 320 g/ha obtained by the experimental procedure mentioned above.

Compound	herbicidal effect AMARE
C=Cc1cc2scnc2nc1-c1ccccc1F [Example I-072]	80%

What follows are compounds tested on Polygonum convolvulus (POLCO) (assay: Herbicidal post-emergence action (D), 320 g/ha). Settings: ca. 3 weeks.
Assay type: in vivo
Source text: as §2, §6, §7

Compound	herbicidal effect POLCO
C=Cc1cc2scnc2nc1-c1ccccc1F [Example I-072]	80%

These compounds were tested on Echinochloa crus-galli (ECHCG) (assay: Herbicidal post-emergence action (D), 320 g/ha). Settings: ca. 3 weeks.
Assay type: in vivo
Source text: as §2, §6, §7

Compound	herbicidal effect ECHCG
Cc1sccc1-c1nc2ncsc2cc1Br [Example I-135]	80%

Each compound was assayed on Alopecurus myosuroides (ALOMY) (assay: Herbicidal post-emergence action (B), 1280 g/ha). Settings: rated visually after about 3 weeks vs untreated controls.
Assay type: in vivo
Procedure, shortened: (§8)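 Post-emergence spray, one-leaf stage; WP/EC formulation, aqueous, 0.5% additive, 600 L/ha water. Sandy loam, greenhouse, doubly sown pots. Visual % rating vs untreated control at ~3 weeks (100% = dead).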

Compound	herbicidal activity ALOMY
C=Cc1cc2scnc2nc1-c1ccccc1F [Example I-072]	100%
Cc1sccc1-c1nc2ncsc2cc1Br [Example I-135]	90%

Each compound was assayed on Amaranthus retroflexus (AMARE) (assay: Herbicidal post-emergence action (B), 1280 g/ha). Settings: rated visually after about 3 weeks vs untreated controls.
Assay type: in vivo
Procedure, shortened: as §8

Compound	herbicidal activity AMARE
C=Cc1cc2scnc2nc1-c1ccccc1F [Example I-072]	100%
Cc1sccc1-c1nc2ncsc2cc1Br [Example I-135]	90%

These compounds were tested on Digitaria sanguinalis (DIGSA) (assay: Herbicidal post-emergence action (B), 1280 g/ha). Settings: rated visually after about 3 weeks vs untreated controls.
Assay type: in vivo
Procedure, shortened: as §8

Compound	herbicidal activity DIGSA
C=Cc1cc2scnc2nc1-c1ccccc1F [Example I-072]	90%

The compounds below were run on Matricaria inodora (MATIN) (assay: Herbicidal post-emergence action (B), 1280 g/ha). Settings: rated visually after about 3 weeks vs untreated controls.
Assay type: in vivo
Procedure, shortened: as §8

Compound	herbicidal activity MATIN
C=Cc1cc2scnc2nc1-c1ccccc1F [Example I-072]	90%
Cc1sccc1-c1nc2ncsc2cc1Br [Example I-135]	90%

The compounds below were run on Kochia scoparia (KCHSC; Bassia scoparia) (assay: Herbicidal post-emergence action (B), 1280 g/ha). Settings: not given.
Assay type: in vivo
Procedure, shortened: as §8

Compound	herbicidal effect KCHSC
C=Cc1cc2scnc2nc1-c1ccccc1F [Example I-072]	90%
Cc1sccc1-c1nc2ncsc2cc1Br [Example I-135]	90%

Each compound was assayed on Stellaria media (STEME) (assay: Herbicidal post-emergence action (B), 1280 g/ha). Settings: not given.
Assay type: in vivo
Procedure, shortened: as §8

Compound	herbicidal effect STEME
C=Cc1cc2scnc2nc1-c1ccccc1F [Example I-072]	90%

What follows are compounds tested on Poa annua (POAAN) (assay: Herbicidal post-emergence action (B), 1280 g/ha). Settings: rated visually after about 3 weeks vs untreated controls.
Assay type: in vivo
Procedure, shortened: as §8

Compound	herbicidal activity POAAN
C=Cc1cc2scnc2nc1-c1ccccc1F [Example I-072]	100%
Cc1sccc1-c1nc2ncsc2cc1Br [Example I-135]	90%

Each compound was assayed on Veronica persica (VERPE) (assay: Herbicidal post-emergence action (B), 1280 g/ha). Settings: not given.
Assay type: in vivo
Procedure, shortened: as §8

Compound	herbicidal effect VERPE
C=Cc1cc2scnc2nc1-c1ccccc1F [Example I-072]	100%
Cc1sccc1-c1nc2ncsc2cc1Br [Example I-135]	90%

What follows are compounds tested on Echinochloa crus-galli (ECHCG) (assay: Herbicidal post-emergence action (B), 1280 g/ha). Settings: rated visually after about 3 weeks vs untreated controls.
Assay type: in vivo
Procedure, shortened: as §8

Compound	herbicidal activity ECHCG
C=Cc1cc2scnc2nc1-c1ccccc1F [Example I-072]	90%

What follows are compounds tested on Setaria viridis (SETVI) (assay: Herbicidal post-emergence action (B), 1280 g/ha). Settings: rated visually after about 3 weeks vs untreated controls.
Assay type: in vivo
Procedure, shortened: as §8

Compound	herbicidal activity SETVI
C=Cc1cc2scnc2nc1-c1ccccc1F [Example I-072]	90%
